Data on one molecule can be found in US12599597B2, “Substituted N-benzhydrylacetamide inhibitors of jumanji domain histone demethylases for the treatment of cancer” (University of Kentucky Research Foundation, priority 2020, dated 2026).

What is called inhibition is the percentage by which the read-out fell short of the control. Low values mean little suppression, high ones strong suppression.

The structures appear in SMILES notation.

For series [1], the system named is CRC cells. In words: CRC cell proliferation. In kind it is cell-based. From the text: KDM3A is a Jumonji domain-containing demethylase that regulates the demethylation of histone H3's lysine 9 (H3K9Me^2).
In series [2] the test system is LS174T. Kind of series: Colon cancer cell proliferation. In kind it is cell-based. As for the experimental part:
(§1) FIGS. 5A-B show an image and graph illustrating validation of CBA-1. (A) CBA-1 repressed Wnt targets in LS174T CRC cells. (B) CBA-1 inhibited CRC cell proliferation (5d, Vi-Cell viability assay).
(§2) The effects of these compounds on proliferation of colon cancer cell line LS174T and DLD1 were analyzed.
(§3) Identification of a CBA-1 as a novel Wnt inhibitor. The present inventors routinely use TOPFlash reporter assay for Wnt inhibitor screening. To mimic the constitutively active Wnt signaling found in CRC cells, Wnt signaling was activated by inhibiting GSK3 and stabilizing β-catenin. From screening in house small-molecule libraries, CBA-1 (FIG. 4) was identified that inhibited Wnt signaling in TOPFlash reporter assay. To validate the screening results, CBA-1 was tested in CRC cells.

Series [3] has as its system DLD1. Kind of series: Colon cancer cell proliferation. It is filed as cell-based. As for the experimental part: as §1, §2, §3
Series [4] relates to Wnt target genes in LS174T colon cancer cells. In words: Western blotting of Wnt target genes in colon cancer cells. In kind it is cell-based.
Excerpt: The activities of 58B1 were validated by western blotting.
as §3

Series [5] has as its target KDM3B (Homo sapiens, UniProt Q7LBC6). Kind of series: KDM3B enzymatic activity. It is filed as biochemical. The conditions noted are these: at 10 μM. From the text:
Other KDM3 members as CBA-1 targets. Inhibition of KDM3A by CBA-1 increased H3K9Me^2 and inhibited Wnt signaling; however, other KDM3 members may also regulate H3K9 methylation. For example, both KDM3B and KDM3C (JMJD1C) regulated Wnt signaling. Given the high similarity of their structures (FIG. 10A), particularly the JmjC domains, it is believed that CBA-1 would inhibit KDM3B and KDM3C as well. […] CBA-1 coordinated with Mn^2+ at a longer distance in KDM3B (3.9 Å) than the distance in KDM3A (2.8 Å) (FIGS. 8B and 10B). This could be one of the reasons that CBA-1 inhibited KDM3A better than KDM3B.
Repurposing drugs as CBA-1 analogs and KDM3 inhibitors. CBA-1 is a specific and potent KDM3A inhibitor. As backup candidates, two approved drugs were identified as CBA-1 analogs and KDM3A inhibitors. Based on the docking study (FIGS. 8A-B), the N and OH groups (red color in FIG. 12A) are critical in binding the Mn^2+ in KDM3A. […] A virtual screening was performed and several antibiotics that have similar structures were identified. Two of these antibiotics, clioquinol and nitroxoline (FIG. 12B), indeed inhibited the enzymatic activities of KDM3 (FIGS. 12C and D). These two drugs were tested in LS174T tumor xenograft model in SCID mice. […] Nitroxoline has been used in Europe for over 50 years as an antibiotic. It has anticancer effects, but the mechanism remains unclear.

The test system of series [6] is Wnt signaling. Kind of series: Zebrafish Wnt signaling models. It is filed as in vivo. From the text:
FIGS. 1A-F show a KDM3A inhibitor, called “58B1,” that inhibited Wnt signaling in vitro and in vivo. (A) Docking of 58B1 to the Jumonji domain. (B) 58B1 inhibited KDM3A enzymatic activity in vitro. (C) KDM3A was overexpressed in CRC. (D) 58B1 increased repressor markers, H3K9Me^2 and K3K9Me^3. (E) 58B1 inhibited Wnt target genes in CRC cells. (F) 58B1 inhibited Wnt signaling in a transgenic zebrafish model. In this model, GFP was control by a Wnt-responsive promoter. In the control fish, GFP was expressed in the tail, where has higher levels on Wnt signaling. 58B1 treatment abolished GFP expression in the tail.
CBA-1 inhibited Wnt signaling in Zebrafish models. Zebrafish provide a well-established in vivo model to study Wnt signaling. Wnt signaling is active in the tail of the larvae during development (FIG. 4), and CBA-1 inhibited Wnt signaling in the tail. […] To rule out the possibility that CBA-1 inhibits the Wnt-mediated phenotype through nonspecific or even toxic effects, an eye-rescue experiment was performed.

Series [7] deals with H3K9Me2 on the promoter of c-Myc gene. In words: ChIP assay followed by qPCR. It is filed as cell-based. From the text:
CBA-1 increased repressive histone methylation on Wnt target genes. The present inventors reported that mutations in APC or β-catenin N-terminal phosphorylation sites prevented β-catenin degradation in CRC cells. […] Because CBA-1 inhibited Wnt signaling in CRC cells, it was reasonable to assume that it inhibited Wnt signaling downstream of β-catenin, most likely by blocking β-catenin activity in the nucleus. Consequently, the present inventors hypothesized that CBA-1 inhibited Wnt signaling epigenetically by altering chromatin remodeling, and they probed the effects of CBA-1 on histone methylation in CRC cells.
A general note: Real-time PCR tracks product formation cycle by cycle.

Series [8] has as its target UTX (KDM6A) (Homo sapiens, UniProt O15550). Kind of series: Histone demethylase assay, purified enzyme panel. It is filed as biochemical. The conditions noted are these: 58B1, 10 μM. From the text:
(§4) Histone Demethylase Assay
(§5) To further examine the effects of 58B1 on histone demethylase, we screened a panel of purified histone demethylases was screened.

Series [9] concerns the target JMJD3 (KDM6B) (Homo sapiens, UniProt O15054). In words: Histone demethylase assay, purified enzyme panel. It is filed as biochemical. The conditions noted are these: 58B1, 10 μM.
Excerpt: as §4, §5

Chain of KDM3B (Q7LBC6 whole entry, the tested form may be a part): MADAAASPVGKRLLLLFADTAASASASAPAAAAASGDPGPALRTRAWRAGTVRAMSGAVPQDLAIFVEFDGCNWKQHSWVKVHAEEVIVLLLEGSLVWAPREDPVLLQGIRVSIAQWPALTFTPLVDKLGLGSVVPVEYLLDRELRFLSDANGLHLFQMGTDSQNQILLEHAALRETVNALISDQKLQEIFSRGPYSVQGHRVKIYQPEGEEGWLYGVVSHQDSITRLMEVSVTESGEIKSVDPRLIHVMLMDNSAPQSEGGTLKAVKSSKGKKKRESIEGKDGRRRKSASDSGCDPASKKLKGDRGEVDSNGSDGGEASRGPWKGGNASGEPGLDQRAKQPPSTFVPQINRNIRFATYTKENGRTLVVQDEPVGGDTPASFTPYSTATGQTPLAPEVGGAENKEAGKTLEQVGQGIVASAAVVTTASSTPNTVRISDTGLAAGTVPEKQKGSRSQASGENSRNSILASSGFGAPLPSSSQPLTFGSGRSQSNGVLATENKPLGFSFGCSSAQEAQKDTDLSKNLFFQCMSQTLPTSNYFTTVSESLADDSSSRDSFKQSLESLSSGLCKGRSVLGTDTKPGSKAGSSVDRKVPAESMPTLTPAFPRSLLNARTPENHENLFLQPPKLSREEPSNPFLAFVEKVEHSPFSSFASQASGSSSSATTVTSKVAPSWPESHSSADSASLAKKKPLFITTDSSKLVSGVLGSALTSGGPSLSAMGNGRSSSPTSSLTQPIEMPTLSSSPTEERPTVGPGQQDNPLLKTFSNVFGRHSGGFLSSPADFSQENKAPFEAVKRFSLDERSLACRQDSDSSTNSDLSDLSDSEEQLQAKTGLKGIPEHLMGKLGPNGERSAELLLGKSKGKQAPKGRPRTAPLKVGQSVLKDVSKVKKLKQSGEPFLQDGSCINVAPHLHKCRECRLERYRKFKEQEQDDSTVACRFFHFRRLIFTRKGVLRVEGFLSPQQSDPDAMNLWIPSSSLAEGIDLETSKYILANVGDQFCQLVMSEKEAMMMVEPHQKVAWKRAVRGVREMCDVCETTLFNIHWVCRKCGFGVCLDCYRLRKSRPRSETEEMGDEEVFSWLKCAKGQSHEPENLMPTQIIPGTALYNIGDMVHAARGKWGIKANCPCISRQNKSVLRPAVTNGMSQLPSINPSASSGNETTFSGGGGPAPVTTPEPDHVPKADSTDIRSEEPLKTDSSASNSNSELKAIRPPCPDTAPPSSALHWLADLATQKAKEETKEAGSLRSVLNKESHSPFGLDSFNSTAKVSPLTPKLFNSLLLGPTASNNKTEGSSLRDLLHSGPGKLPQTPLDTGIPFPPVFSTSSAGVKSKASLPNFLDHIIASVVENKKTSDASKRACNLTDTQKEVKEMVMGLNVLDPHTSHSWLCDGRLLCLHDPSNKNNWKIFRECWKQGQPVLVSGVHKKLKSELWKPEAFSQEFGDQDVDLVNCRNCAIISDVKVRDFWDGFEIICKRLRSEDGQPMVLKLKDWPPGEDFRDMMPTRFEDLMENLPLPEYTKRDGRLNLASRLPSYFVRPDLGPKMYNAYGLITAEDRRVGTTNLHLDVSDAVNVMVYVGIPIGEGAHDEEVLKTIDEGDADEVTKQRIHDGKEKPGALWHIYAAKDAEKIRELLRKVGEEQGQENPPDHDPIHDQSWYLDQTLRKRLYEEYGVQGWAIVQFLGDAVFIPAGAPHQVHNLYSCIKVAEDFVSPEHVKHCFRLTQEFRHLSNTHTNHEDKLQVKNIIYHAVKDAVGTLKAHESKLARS
Chain of UTX (KDM6A) (O15550 whole entry): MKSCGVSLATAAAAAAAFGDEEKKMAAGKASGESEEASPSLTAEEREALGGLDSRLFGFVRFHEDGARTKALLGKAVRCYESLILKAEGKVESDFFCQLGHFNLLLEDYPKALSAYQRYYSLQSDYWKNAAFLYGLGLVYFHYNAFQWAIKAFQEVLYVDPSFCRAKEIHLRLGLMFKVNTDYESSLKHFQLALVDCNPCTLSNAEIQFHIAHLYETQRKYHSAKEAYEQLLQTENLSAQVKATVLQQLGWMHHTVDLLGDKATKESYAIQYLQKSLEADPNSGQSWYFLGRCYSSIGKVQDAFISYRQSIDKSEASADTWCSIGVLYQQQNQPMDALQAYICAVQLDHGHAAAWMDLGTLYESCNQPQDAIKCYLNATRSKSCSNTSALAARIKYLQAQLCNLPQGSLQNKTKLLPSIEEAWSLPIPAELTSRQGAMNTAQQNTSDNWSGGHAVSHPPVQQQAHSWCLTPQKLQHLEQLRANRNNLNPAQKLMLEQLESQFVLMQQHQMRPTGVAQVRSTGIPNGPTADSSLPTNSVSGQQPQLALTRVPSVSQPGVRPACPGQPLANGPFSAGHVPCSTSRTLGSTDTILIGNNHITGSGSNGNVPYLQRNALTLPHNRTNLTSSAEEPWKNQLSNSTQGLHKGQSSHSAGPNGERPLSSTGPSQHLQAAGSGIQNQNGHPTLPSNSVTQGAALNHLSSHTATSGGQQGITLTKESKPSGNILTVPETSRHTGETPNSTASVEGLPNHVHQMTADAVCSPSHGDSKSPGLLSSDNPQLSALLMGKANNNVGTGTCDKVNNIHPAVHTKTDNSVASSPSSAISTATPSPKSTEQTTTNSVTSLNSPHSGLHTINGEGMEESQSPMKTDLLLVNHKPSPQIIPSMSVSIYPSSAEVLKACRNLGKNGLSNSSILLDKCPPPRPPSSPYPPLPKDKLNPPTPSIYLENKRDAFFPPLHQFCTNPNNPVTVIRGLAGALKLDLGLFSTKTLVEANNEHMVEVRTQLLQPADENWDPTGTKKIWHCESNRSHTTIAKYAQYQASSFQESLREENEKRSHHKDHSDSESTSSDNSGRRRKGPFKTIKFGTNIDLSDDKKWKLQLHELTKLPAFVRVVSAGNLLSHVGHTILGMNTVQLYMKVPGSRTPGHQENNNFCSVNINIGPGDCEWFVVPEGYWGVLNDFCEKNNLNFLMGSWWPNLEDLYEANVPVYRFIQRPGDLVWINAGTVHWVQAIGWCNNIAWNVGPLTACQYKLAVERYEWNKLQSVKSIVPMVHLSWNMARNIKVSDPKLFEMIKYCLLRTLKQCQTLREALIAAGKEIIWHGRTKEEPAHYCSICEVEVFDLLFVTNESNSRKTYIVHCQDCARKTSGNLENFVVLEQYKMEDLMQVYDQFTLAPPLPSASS
Chain of JMJD3 (KDM6B) (O15054 whole entry): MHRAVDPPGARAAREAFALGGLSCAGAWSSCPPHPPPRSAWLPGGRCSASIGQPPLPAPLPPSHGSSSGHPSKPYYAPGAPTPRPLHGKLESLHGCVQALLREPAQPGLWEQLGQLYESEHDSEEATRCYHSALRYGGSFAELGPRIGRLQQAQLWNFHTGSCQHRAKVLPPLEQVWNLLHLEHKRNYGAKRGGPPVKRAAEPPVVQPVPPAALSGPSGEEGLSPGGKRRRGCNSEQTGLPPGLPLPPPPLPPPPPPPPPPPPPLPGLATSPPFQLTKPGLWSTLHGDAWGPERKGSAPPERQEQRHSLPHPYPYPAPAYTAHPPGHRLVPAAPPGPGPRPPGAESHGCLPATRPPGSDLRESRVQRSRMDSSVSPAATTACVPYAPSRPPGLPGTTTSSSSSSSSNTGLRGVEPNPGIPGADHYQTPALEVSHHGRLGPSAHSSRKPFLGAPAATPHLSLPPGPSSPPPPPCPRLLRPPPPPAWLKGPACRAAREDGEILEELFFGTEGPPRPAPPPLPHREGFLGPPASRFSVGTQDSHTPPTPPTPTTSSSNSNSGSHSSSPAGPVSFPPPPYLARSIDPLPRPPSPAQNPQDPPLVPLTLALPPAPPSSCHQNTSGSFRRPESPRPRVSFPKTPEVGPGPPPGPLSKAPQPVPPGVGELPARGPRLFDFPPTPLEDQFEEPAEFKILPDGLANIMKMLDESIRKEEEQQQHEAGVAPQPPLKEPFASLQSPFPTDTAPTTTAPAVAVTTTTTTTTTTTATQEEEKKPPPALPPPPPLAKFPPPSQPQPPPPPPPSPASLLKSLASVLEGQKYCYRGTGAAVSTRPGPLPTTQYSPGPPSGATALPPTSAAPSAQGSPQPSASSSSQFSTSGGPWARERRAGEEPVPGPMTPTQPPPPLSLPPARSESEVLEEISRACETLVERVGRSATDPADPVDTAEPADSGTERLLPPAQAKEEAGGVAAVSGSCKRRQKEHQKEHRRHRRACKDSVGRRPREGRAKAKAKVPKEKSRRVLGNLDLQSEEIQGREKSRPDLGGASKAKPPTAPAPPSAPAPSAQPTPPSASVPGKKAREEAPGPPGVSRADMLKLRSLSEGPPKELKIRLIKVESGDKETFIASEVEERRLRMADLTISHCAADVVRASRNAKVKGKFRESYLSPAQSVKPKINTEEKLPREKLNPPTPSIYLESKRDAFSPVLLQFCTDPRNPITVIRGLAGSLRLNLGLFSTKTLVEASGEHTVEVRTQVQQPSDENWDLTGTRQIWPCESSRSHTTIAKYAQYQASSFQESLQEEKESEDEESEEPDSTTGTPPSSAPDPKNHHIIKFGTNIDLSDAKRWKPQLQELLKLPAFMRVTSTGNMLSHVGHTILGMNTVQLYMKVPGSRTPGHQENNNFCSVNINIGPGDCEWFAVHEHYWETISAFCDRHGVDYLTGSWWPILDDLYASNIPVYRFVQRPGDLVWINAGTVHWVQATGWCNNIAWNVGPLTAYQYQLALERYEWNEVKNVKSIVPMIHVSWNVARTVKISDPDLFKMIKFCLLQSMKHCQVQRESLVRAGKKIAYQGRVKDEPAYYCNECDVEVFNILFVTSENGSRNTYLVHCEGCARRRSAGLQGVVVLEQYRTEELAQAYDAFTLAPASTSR

Regarding `CCCC(=O)NC(c1ccc(N(CC)CC)cc1)c1cc(Cl)c2cccnc2c1O` (stereo not shown) [58B1], the CRC cell proliferation entry in series [1] (at 100 nM concentration) was “inhibited”. For the same molecule, in [1] (expected), the “sensitivity of CRC cells compared with normal colon cells” value is given as “more sensitive”. The “proliferation of CRC cell lines” value is “inhibited proliferation” in series [2] (LS174T (β-catenin mutation), 5d, Vi-Cell viability assay) and “inhibited proliferation” in series [3] (DLD1 (APC mutation), 5d, Vi-Cell viability assay). Also, the “proliferation of colon cancer cell line” value in series [2] (LS174T, at low nanomolar concentrations) is recorded as “strongly inhibited”; in series [3] (DLD1, at low nanomolar concentrations), “strongly inhibited”. Besides, the “expression of Wnt target genes” value in series [4] (5 μM, LS174T, western blotting) is “strongly inhibited”; in series [4] (CRC cells (LS174T), concentration not given), “repressed”. For the same molecule, the KDM3B inhibition entry in [5] is given as “weakly inhibits”. The “GFP expression in the tail (Wnt-responsive promoter)” value in [6] (transgenic zebrafish model) was “abolished”. Further, the Wnt-dependent tail regeneration result in [6] (zebrafish) is reported as “reduced”. Moreover, in series [6] (zebrafish), the “toxicity in eye-rescue experiment” value is “without obvious toxicity effects”. The “Wnt signaling in the tail” value in [6] (zebrafish larvae) is “inhibited”. Also, the “Wnt-induced eye defects (eye-rescue experiment)” value in series [6] (zebrafish, dose-responsive manner) was “rescued”. The “levels of H3K9Me2 on the promoter of c-Myc gene” value in series [7] (ChIP, qPCR) is given as “increased”. In [7] (expected), the “active markers H3K9Ac and H3K4Me^3 on the promoter of Wnt target genes in CRC cells” value is recorded as “decrease”. In addition, the “repressive marker H3K9Me^2 on the promoter of Wnt target genes in CRC cells” value in series [7] (expected) was “increase”. Besides, the inhibition at 10 µM in series [8] is 100%; in series [9], 94%.
